Assay results: US11274118B2 (priority 2012, dated 2022)
Values after ≈ are worked out from the molar mass of the structure shown.

Columns and labels:
Primary cortical cells = assay: Reduction of neuronal cell death after a glutamate challenge (MTT / LDH release); format: cell-based; details: for inhibition at 5 µM: 24 h, read-out: reduction in cell death at a 5 μM dose; for dose at maximum efficacy: glutamate challenge, primary cortical cells; for Emax: read-out: maximum efficacy, reduction in cell death
physchem [1] = details: kinetic from dmso stock
[2] = rat, in vivo, iv, 4 mg/kg
[3] = tested on: cerebral edema in rats following bilateral cortical contusion; details: rat, in vivo, iv, 4 mg/kg
physchem [4] = details: buffer, pH 7

Structure (SMILES) | inhibition at 5 µM (Primary cortical cells) [%] | dose at maximum efficacy (Primary cortical cells) [µM] | Emax (Primary cortical cells) [%] | solubility at 90 min (physchem [1]; pH 4, aqueous buffer) [µM] | solubility at 90 min (physchem [1]; pH 7, aqueous buffer) [µM] | concentrations of circulating drug [2] | reduction of brain edema [3] [%] | half-life (physchem [4]) [h]
CC(=O)[C@H]1CC[C@H]2[C@@H]3CCC4=C/C(=N/O)CC[C@]4(C)[C@H]3CC[C@]12C [Compound 2, 1-((8S,9S,10R,13S,14S,17S,E)-3-(Hydroxyimino)-10,13-dimethyl-2,3,6,7,8,9,10,11,12,13,14,15,16,17-tetradecahydro-1H-cyclopenta[a]phenanthren-17-yl)ethanone] | 21 | 5 | 21 | < 45 | < 45 | micromolar concentrations | 60 | > 240
CO/N=C(\C)[C@H]1CC[C@H]2[C@@H]3CCC4=CC(=O)CC[C@]4(C)[C@H]3CC[C@]12C [Compound 4, (8S,9S,10R,13S,14S,17S)-17-((E)-1-(Methoxyimino)ethyl)-10,13-dimethyl-6,7,8,9,10,11,12,13,14,15,16,17-dodecahydro-1H-cyclopenta[a]phenanthren-3(2H)-one] | – | – | – | < 25 | < 25 | – | – | > 240
C/C(=N\OCCN1CCOCC1)[C@H]1CC[C@H]2[C@@H]3CCC4=CC(=O)CC[C@]4(C)[C@H]3CC[C@]12C [Compound 5, (8S,9S,10R,13S,14S,17S)-10,13-Dimethyl-17-((E)-1-(2-morpholinoethoxyimino)ethyl)-6,7,8,9,10,11,12,13,14,15,16,17-dodecahydro-1H-cyclopenta[a]phenanthren-3 (2H)-one] | 26 | 5 | 26 | > 450 | 108 (≈ 47.8 µg/mL) | – | – | > 240
CC(=O)O/N=C(\C)[C@H]1CC[C@H]2[C@@H]3CCC4=CC(=O)CC[C@]4(C)[C@H]3CC[C@]12C [Compound 6, (8 S,9S,10R,13S,14S,17S)-17-((E)-1-(acetoxyimino)ethyl)-10,13-dimethyl-6,7,8,9,10,11,12,13,14,15,16,17-dodecahydro-1H-cyclopenta[a]phenanthren-3(2H)-one] | – | – | – | 180 (≈ 66.9 µg/mL) | 100 (≈ 37.2 µg/mL) | – | – | –
C/C(=N\OC(=O)[C@@H]1CCCN1)[C@H]1CC[C@H]2[C@@H]3CCC4=CC(=O)CC[C@]4(C)[C@H]3CC[C@]12C.Cl [Compound 8, (8S,9S,10R,13S,14S,17S)-10,13-Dimethyl-17-((E)-1-((S)-pyrrolidine-2-carbonyloxyimino)ethyl)-6,7,8,9,10,11,12,13,14,15,16,17-dodecahydro-1H-cyclopenta[a]phenanthren-3(2H)-one Hydrochloride] | 21 | 10 | 33 | 395 | 34 | – | – | –
C/C(=N\OC(=O)[C@@H]1CCC[N+]1(C)C)[C@H]1CC[C@H]2[C@@H]3CCC4=CC(=O)CC[C@]4(C)[C@H]3CC[C@]12C.[I-] [Compound 9, (8S,9S,10R,13S,14S,17S)-10,13-Dimethyl-17-((E)-1-((S)-1,1-Dimethylpyrrolidine-2-carbonyloxyimino)ethyl)-6,7,8,9,10,11,12,13,14,15,16,17-dodecahydro-1H-cyclopenta[a]phenanthren-3(2H)-one iodide] | – | – | – | 345 | 51 | – | – | 0.833
C/C(=N\OC(=O)C[N+](C)(C)C)[C@H]1CC[C@H]2[C@@H]3CCC4=CC(=O)CC[C@]4(C)[C@H]3CC[C@]12C.[I-] [Compound 11, (8S,9S,10R,13S,14S,17S)-17-((E)-1-(2-(triimethylamino)acetoxyimino)ethyl)-10,13-dimethyl-6,7,8,9,10,11,12,13,14,15,16,17-dodecahydro-1H-cyclopenta[a]phenanthren-3(2H)-one Iodide] | – | – | – | > 540 | 45 | – | – | –
C/C(=N\OC(=O)CN1CCOCC1)[C@H]1CC[C@H]2[C@@H]3CCC4=CC(=O)CC[C@]4(C)[C@H]3CC[C@]12C [Compound 12, (8S,9S,10R,13S,14S,17S)-10,13-Dimethyl-17-((E)-1-(2-morpholinoacetoxyimino)ethyl)-6,7,8,9,10,11,12,13,14,15,16,17-dodecahydro-1H-cyclopenta[a]phenanthren-3(2H)-one] | – | – | – | 215 (≈ 98.2 µg/mL) | 215 (≈ 98.2 µg/mL) | – | – | –
C/C(=N\OC(=O)CN1CCN(C)CC1)[C@H]1CC[C@H]2[C@@H]3CCC4=CC(=O)CC[C@]4(C)[C@H]3CC[C@]12C [Compound 13, (8S,9S,10R,13S,14S,17S)-10,13-Dimethyl-17-((E)-1-(2-(4-methylpiperazin-1-yl)acetoxyimino)ethyl)-6,7,8,9,10,11,12,13,14,15,16,17-dodecahydro-1H-cyclopenta[a]phenanthren-3 (2H)-one] | – | – | – | 153 (≈ 71.9 µg/mL) | 145 (≈ 68.1 µg/mL) | – | – | ~72
C/C(=N\OC(=O)c1cccnc1)[C@H]1CC[C@H]2[C@@H]3CCC4=CC(=O)CC[C@]4(C)[C@H]3CC[C@]12C [Compound 14] | 20 | 5 | 20 | < 35 | < 35 | – | – | –
C/C(=N\OC(=O)c1ccc[n+](C)c1)[C@H]1CC[C@H]2[C@@H]3CCC4=CC(=O)CC[C@]4(C)[C@H]3CC[C@]12C.[I-] [Compound 15, 3-(((E)-1-((8S,9S,10R,13S,14S,17S)-10,13-Dimethyl-3-oxo-2,3,6,7,8,9,10,11,12,13,14,15,16,17-tetradecahydro-1H-cyclopenta[a]phenanthren-17-yl)ethylideneaminooxy)carbonyl)-1-methylpyridinium iodide] | 0 | 1 | 14 | 349 | 212 | – | – | –
C/C(=N\OC(=O)c1ccc(CN)cc1)[C@H]1CC[C@H]2[C@@H]3CCC4=CC(=O)CC[C@]4(C)[C@H]3CC[C@]12C.Cl [Compound 16, (8S,9S,10R,13S,14S,17S)-17-((E)-1-(4-(aminomethyl)benzoyloxyimino)ethyl)-10,13-dimethyl-6,7,8,9,10,11,12,13,14,15,16,17-dodecahydro-1H-cyclopenta[a]phenanthren-3 (2H)-one] | – | – | – | < 30 | < 30 | – | – | –
C/C(=N\OC(=O)c1ccc(CN2CCN(C)CC2)cc1)[C@H]1CC[C@H]2[C@@H]3CCC4=CC(=O)CC[C@]4(C)[C@H]3CC[C@]12C [Compound 17, (8S,9S,10R,13S,14S,17S)-10,13-dimethyl-17-((E)-1-(4-((4-methylpiperazin-1-yl)methyl)benzoyloxyimino)ethyl)-6,7,8,9,10,11,12,13,14,15,16,17-dodecahydro-1H-cyclopenta[a]phenanthren-3(2H)-one] | – | – | – | < 30 | < 30 | – | – | –
C/C(=N\OC(=O)C1CCNCC1)[C@H]1CC[C@H]2[C@@H]3CCC4=CC(=O)CC[C@]4(C)[C@H]3CC[C@]12C.Cl [Compound 18, (8S,9S,10R,13S,14S,17S)-10,13-Dimethyl-17-((E)-1-(piperidine-4-carbonyloxyimino)ethyl)-6,7,8,9,10,11,12,13,14,15,16,17-dodecahydro-1H-cyclopenta[a]phenanthren-3(2H)-one hydrochloride] | 4 | 10 | 24 | 247 | 247 | – | – | –
C/C(=N\OC(=O)C1CCN(C)CC1)[C@H]1CC[C@H]2[C@@H]3CCC4=CC(=O)CC[C@]4(C)[C@H]3CC[C@]12C [Compound 19, (8S,9S,10R,13S,14S,17S)-10,13-Dimethyl-17-((E)-1-(1-methylpiperidine-4-carbonyloxyimino)ethyl)-6,7,8,9,10,11,12,13,14,15,16,17-dodecahydro-1H-cyclopenta[a]phenanthren-3(2H)-one] | – | – | – | > 660 | 108 (≈ 49.1 µg/mL) | – | – | –
C/C(=N\OC(=O)C1CC[N+](C)(C)CC1)[C@H]1CC[C@H]2[C@@H]3CCC4=CC(=O)CC[C@]4(C)[C@H]3CC[C@]12C.[I-] [Compound 20, (8S,9S,10R,13S,14S,17S)-10,13-Dimethyl-17-((E)-1-(1,1-dimethylpiperidine-4-carbonyloxyimino)ethyl)-6,7,8,9,10,11,12,13,14,15,16,17-dodecahydro-1H-cyclopenta[a]phenanthren-3(2H)-one iodide] | 0 | 5 | 0 | > 500 | > 500 | – | – | –
C/C(=N\OC(=O)[C@@H]1CCCNC1)[C@H]1CC[C@H]2[C@@H]3CCC4=CC(=O)CC[C@]4(C)[C@H]3CC[C@]12C.Cl [Compound 21, (8S,9S,10R,13S,14S,17S)-10,13-dimethyl-17-((E)-1-((R)-piperidine-3-carbonyloxyimino)ethyl)-6,7,8,9,10,11,12,13,14,15,16,17-dodecahydro-1H-cyclopenta[a]phenanthren-3 (2H)-one hydrochloride] | – | – | – | > 500 | 428 | – | – | –
C/C(=N\OC(=O)[C@H]1CCCNC1)[C@H]1CC[C@H]2[C@@H]3CCC4=CC(=O)CC[C@]4(C)[C@H]3CC[C@]12C.Cl [Compound 22, (8S,9S,10R,13S,14S,17S)-10,13-Dimethyl-17-((E)-1-((S)-piperidine-3-carbonyloxyimino)ethyl)-6,7,8,9,10,11,12,13,14,15,16,17-dodecahydro-1H-cyclopenta[a]phenanthren-3(2H)-one hydrochloride] | – | – | – | 314 | 314 | – | – | –
